In data set [1] the test system is GLP-1R humanized C57BL/6J mice. As to the kind of experiment: Evaluation of hypoglycemic effect in mice (intraperitoneal glucose challenge). The format is in vivo. To be noted: intragastric dose 1 mg/kg, glucose 2 g/kg ip 5 h after administration. The text has this:
GLP-1R humanized C57BL/6J mice of 20-22 g were used in this study after 3 days of acclimatization. All the animals were deprived of food but not water until the end of study. Blood samples were collected from the tail tip of the mice.
The test animals were deprived of food but not water overnight before the study. The next day, blood was collected from all the animals for blood glucose testing, and the animals were randomized into a normal control group, a positive control group, and test compound groups by blood glucose and body weight, with 6 animals in each group. The groups were then given intragastric doses, and 5 h after the administration, an intraperitoneal injection of glucose solution (2 g/kg) was given. The blood glucose concentration was measured at 0.25 h, 0.5 h, 1 h, 2 h, and 3 h after the glucose injection. The blood glucose was recorded throughout the study, and the area under the blood glucose-time curve AUC0-180 min Glu was calculated.

A short description of data set [2]: In vitro stability assay in liver microsome (HLM). The format is in vitro ADME, human. Particulars: liver microsome 0.5 mg/mL, NADPH+MgCl2, PBS pH 7.4, 1 h. How it is done:
(§1) Liver microsome incubation samples were prepared by mixing a PBS buffer (pH 7.4), a liver microsome solution (0.5 mg/mL), a test compound, and an NADPH+MgCl2 solution, and incubated at […] and 300 rpm for 1 h. Zero-hour samples were prepared by mixing a PBS buffer (pH 7.4), a liver microsome solution (0.5 mg/mL), and a test compound. An acetonitrile solution containing an internal standard was added to the samples, and supernatants were prepared by protein precipitation, diluted, and then assayed by LC/MS/MS.
On the technique in general: Liver microsomes are a subcellular fraction often used to study metabolism.

A short description of data set [3]: In vitro stability assay in liver microsome (MLM). In kind it is in vitro ADME, mouse. Particulars: liver microsome 0.5 mg/mL, NADPH+MgCl2, PBS pH 7.4, 1 h. How it is done:
as §1

Data set [4] can be described thus: In vivo pharmacokinetic evaluation in mice. To be noted: mouse, plasma, ICR mice; for bioavailability: ig 3 mg/kg vs iv 0.5 mg/kg, read-out: Absolute bioavailability F; for MRT last: read-out: MRT(0-24); for half-life: read-out: t½ (converted); for AUC(0-t): read-out: AUC(0-24). How it is done:
ICR mice of 18-22 g were randomized into 4 groups of 9 mice after 3-5 days of acclimatization. […]
The test animals (ICR mice) were fasted from 12 h pre-dose to 4 h post-dose, and given free access to water throughout the study.
Orbital blood samples of about 0.1 mL were collected at 15 min, 30 min, 1 h, 2 h, 3 h, 4 h, 6 h, 8 h, 10 h, and 24 h post-dose for the intragastric administration, and at 5 min, 10 min, 30 min, 1 h, 2 h, 4 h, 6 h, 8 h, 10 h, and 24 h post-dose for the intravenous administration. The blood sampling was performed at 3-4 time points for each mouse, 3 mice per time point. The collected whole blood was transferred into EDTA-K2-containing centrifuge tubes and stored at 4° C., and, within 1 h, centrifuged at 4° C. at 4000 rpm for 10 min to separate the plasma. All the plasma samples were immediately stored after collection at −20° C. for testing.
30 μL of the plasma sample to be tested and a standard curve sample were pipetted and added with 300 μL of an acetonitrile solution containing an internal standard (20 ng/mL of diazepam). The mixture was shaken to mix well for 5 min, and centrifuged at 13,000 rpm for 10 min. 80 μL of the supernatant was taken and diluted with 80 μL of ultrapure water. After a thorough mixing, 2 μL of the resulting sample was taken for liquid chromatography-mass spectrometry, and the chromatogram was recorded.

A further data set addresses GLP1R (Homo sapiens, UniProt P43220). In words: In vitro cellular cAMP expression activity assay (CRE-luciferase reporter). The format is cell-based. To be noted: HEK293/CRE-Luc/GLP1R cells, 6 h incubation, luciferase luminescence; read-out: HEK293/CRE-Luc/GLP-1R EC50. On the procedure:
HEK293/CRE-Luc/GLP1R cells (manufacturer: GenScript Biotech Corporation) in a good growth state were taken, washed with PBS, and digested with pancreatin. The digestion was terminated with a complete medium. The cells were collected into a centrifuge tube, adjusted to a cell density of 4×10^5 cells/mL using a DMEM+2% FBS medium, seeded in a 96-well plate (100 μL/well), and incubated at 37° C. for 1 h. After 1 h, the compounds were added using a nanoliter pipettor such that the final concentrations of the compounds were 10 nM-0.0006 nM. The compounds were added in duplicate, and a control was set. After the cells were incubated in a cell incubator for another 6 h, a detection reagent Luciferase (manufacturer: Vazyme Biotech, 50 μL/well) was added. The plate was left to stand at room temperature for 3 min to fully lyse the cells, and the luminescence was detected on a PerkinElmer Envision microplate reader. A dose-response curve was fitted by four-parameter analysis, and the EC50 was calculated.
(Reporter assays use an easily measured gene product as a stand-in for the process of interest.)

Structures are written as SMILES. Read-outs that look alike come from different tables or passages of the source.

GLP1R, sequence (P43220 24-463): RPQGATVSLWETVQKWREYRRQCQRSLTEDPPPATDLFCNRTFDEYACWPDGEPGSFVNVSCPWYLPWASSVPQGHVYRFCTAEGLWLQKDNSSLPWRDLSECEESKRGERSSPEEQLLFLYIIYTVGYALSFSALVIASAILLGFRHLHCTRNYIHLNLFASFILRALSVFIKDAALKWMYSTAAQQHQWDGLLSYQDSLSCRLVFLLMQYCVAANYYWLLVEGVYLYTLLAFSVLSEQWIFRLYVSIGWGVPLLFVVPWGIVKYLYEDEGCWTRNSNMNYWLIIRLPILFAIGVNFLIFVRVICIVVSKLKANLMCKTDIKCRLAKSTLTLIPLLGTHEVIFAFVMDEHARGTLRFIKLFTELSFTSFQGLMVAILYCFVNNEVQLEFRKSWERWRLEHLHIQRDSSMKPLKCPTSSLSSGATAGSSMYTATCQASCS

As for `Cc1cc(-n2nc3c(c2-n2ccn(-c4ccc5c(c4)N(C)C(=O)C54CC4)c2=O)[C@H](C)N(C(=O)c2cc4cc(C5CCOC(C)(C)C5)ccc4n2[C@@]2(c4noc(=O)[nH]4)C[C@@H]2C)CC3)cc(C)c1F` (single isomer, unassigned) [Compound 5], the “AUC0-180 min Glu reduction (%)” value in data set [1] is 83%. Moreover, the “HLM Remaining (T = 60 min)” value in data set [2] is given as 98.60%. Moreover, the “MLM Remaining (T = 60 min)” value in data set [3] was found to be 94.32%. Also, the bioavailability in data set [4] (po) was found to be 35.2%. In data set [4] (po, ig, dose 3 mg/kg), the MRT last was determined as 7.8 h, the half-life was 4.27 h, the AUC(0-inf) was 4780 ng·h/mL and the AUC(0-t) came to 4640 ng·h/mL. Moreover, in data set [4] (iv, dose 0.5 mg/kg), the MRT last was 5.16 h, the half-life is 4.6 h, the AUC(0-inf) stood at 2260 ng·h/mL and the AUC(0-t) amounted to 2220 ng·h/mL. Also, the EC50 at GLP1R was below 0.5 nM.
Take `[2H]C([2H])([2H])N1C(=O)C2(CC2)c2cc(-n3ccn(-c4c5c(nn4-c4cc(C)c(F)c(C)c4)CCN(C(=O)c4cc6cc([C@H]7CCOC(C)(C)C7)ccc6n4[C@@]4(c6noc(=O)[nH]6)C[C@@H]4C)[C@H]5C)c3=O)ccc21` [Compound 2]: the “HLM Remaining (T = 60 min)” value in data set [2] came to 88.76%. The “MLM Remaining (T = 60 min)” value in data set [3] came out at 88.89%. In data set [4] (po), the bioavailability is 43.9%. Besides, in data set [4] (po, ig, dose 3 mg/kg), the MRT last was 7.73 h, the half-life was 3.53 h, the AUC(0-inf) was found to be 4880 ng·h/mL and the AUC(0-t) came out at 4790 ng·h/mL. In data set [4] (iv, dose 0.5 mg/kg), the MRT last came out at 5.13 h, the half-life is 4.1 h, the AUC(0-inf) was 1850 ng·h/mL and the AUC(0-t) amounted to 1820 ng·h/mL. For the same molecule, on GLP1R, the EC50 is below 0.5 nM.
Turning to `Cc1cc(-n2nc3c(c2-n2ccn(-c4ccc5c(c4)C4(CC4)C(=O)N5C4CC4)c2=O)[C@H](C)N(C(=O)c2cc4cc([C@H]5CCOC(C)(C)C5)ccc4n2[C@@]2(c4noc(=O)[nH]4)C[C@@H]2C)CC3)cc(C)c1F` [Compound 3], the “HLM Remaining (T = 60 min)” value in data set [2] amounted to 80.83%. The “MLM Remaining (T = 60 min)” value in data set [3] is 90.13%. In data set [4] (po), the bioavailability turned out to be 33.7%. Also, in data set [4] (po, ig, dose 3 mg/kg), the MRT last came out at 8.42 h, the half-life is 4.15 h, the AUC(0-inf) was 4960 ng·h/mL and the AUC(0-t) came out at 4800 ng·h/mL. Further, in data set [4] (iv, dose 0.5 mg/kg), the MRT last turned out to be 6.13 h, the half-life was 5.73 h, the AUC(0-inf) amounted to 2450 ng·h/mL and the AUC(0-t) turned out to be 2360 ng·h/mL. Moreover, the EC50 at GLP1R is below 0.5 nM.
On to `Cc1cc(-n2nc3c(c2-n2ccn(-c4ccc5c(c4F)N(C)C(=O)C54CC4)c2=O)[C@H](C)N(C(=O)c2cc4cc([C@H]5CCOC(C)(C)C5)ccc4n2[C@@]2(c4noc(=O)[nH]4)C[C@@H]2C)CC3)cc(C)c1F` [Compound 14], for which, in data set [1], the “AUC0-180 min Glu reduction (%)” value turned out to be 79%. Also, the “HLM Remaining (T = 60 min)” value in data set [2] was determined as 89.53%. Moreover, the “MLM Remaining (T = 60 min)” value in data set [3] stood at 90.40%. The bioavailability in data set [4] (po) came out at 37.8%. Moreover, in data set [4] (po, ig, dose 3 mg/kg), the MRT last came out at 10.1 h, the half-life is 5.54 h, the AUC(0-inf) amounted to 4910 ng·h/mL and the AUC(0-t) is 4560 ng·h/mL. For the same molecule, in data set [4] (iv, dose 0.5 mg/kg), the MRT last turned out to be 6.78 h, the half-life is 5.77 h, the AUC(0-inf) amounted to 2170 ng·h/mL and the AUC(0-t) was found to be 2060 ng·h/mL. For the same molecule, at GLP1R, the EC50 is below 0.5 nM.
With `C[C@H]1c2c(nn(-c3ccc(F)c(C4CC4)c3)c2-n2ccn(-c3ccc4c(c3)N(C)C(=O)C43CC3)c2=O)CCN1C(=O)c1cc2cc([C@H]3CCOC(C)(C)C3)ccc2n1[C@@]1(c2noc(=O)[nH]2)C[C@@H]1C` [Compound 18], the “HLM Remaining (T = 60 min)” value in data set [2] was 89.14%. Besides, the “MLM Remaining (T = 60 min)” value in data set [3] came to 91.41%. In addition, in data set [4] (po), the bioavailability came to 33.5%. Moreover, in data set [4] (po, ig, dose 3 mg/kg), the MRT last is 8.36 h, the half-life was 4.29 h, the AUC(0-inf) is 6030 ng·h/mL and the AUC(0-t) came out at 5840 ng·h/mL. Also, in data set [4] (iv, dose 0.5 mg/kg), the MRT last worked out at 5.48 h, the half-life is 4.55 h, the AUC(0-inf) turned out to be 3000 ng·h/mL and the AUC(0-t) is 2930 ng·h/mL. Also, the EC50 at GLP1R is below 0.5 nM.
As for `Cc1cc(-c2nn3c(c2-n2ccn(-c4ccc5c(c4)N(C)C(=O)C54CC4)c2=O)[C@H](C)N(C(=O)c2cc4cc([C@H]5CCOC(C)(C)C5)ccc4n2[C@@]2(c4noc(=O)[nH]4)C[C@@H]2C)CC3)cc(C)c1F` [Compound 27-D], the “AUC0-180 min Glu reduction (%)” value in data set [1] was determined as 75%. For the same molecule, the “HLM Remaining (T = 60 min)” value in data set [2] is on record as 86.20%. In data set [3], the “MLM Remaining (T = 60 min)” value was found to be 87.54%. Moreover, the EC50 at GLP1R is below 0.5 nM.

By bioavailability is commonly meant the share of a dose that reaches the circulation, judged against a reference dose that is usually intravenous. A word on the AUC(0-inf): it is total exposure, with the tail of the curve extrapolated. Read a high AUC(0-inf) as high exposure.

The values above are taken from patent publication US20260098037A1, “COMPOUND CONTAINING MULTI-FUSED RING STRUCTURE” (Chia Tai Tianqing Pharmaceutical Group Co., Ltd., priority 2023, published 2026).
